Measurements reported in patent publication US20250228239A1, “MOLECULES HAVING PESTICIDAL UTILITY, AND INTERMEDIATES, COMPOSITIONS, AND PROCESSES, RELATED THERETO” (priority 2024, published 2025).
Like-named read-outs stand apart in the source and are kept apart here.

Legend:
Assay type in all cases: in vivo
[1] = test system: Yellow Fever Mosquito (Aedes aegypti, AEDSAE); conditions: for YFM rating: Table ABC / ABC-DP rating
Outline: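 Compounds from 4000 ppm DMSO stocks were diluted in 90:10 water/acetone and dispensed into wells, then infested with about 1-day-old larvae in liver-powder water. Covered plates were held at room temperature for 3 days and each well was scored for mortality against a rating scale; six replicate plates per compound.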

[2] = test system: Beet Armyworm (Spodoptera exigua, LAPHEG); test: Bioassays on Beet Armyworm (BAW), 128-well diet tray assay; conditions: Spodoptera exigua
Outline: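 Percent larval mortality, averaged across eight wells, scored after five to seven days at 25° C. under 14:10 light-dark. Each well held one to five second instars feeding on diet dosed at 50 μg/cm^2 with compound from 90:10 acetone-water, solvent dried off.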

[3] = test system: Cabbage Looper (Trichoplusia ni, TRIPNI); test: Bioassays on Cabbage Looper (CL), 128-well diet tray assay; conditions: Trichoplusia ni
Outline: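 One to five second-instar larvae per well on artificial diet surface-treated with 50 μg/cm^2 test molecule (applied in 90:10 acetone-water, dried). Held 5–7 days at 25° C, 14:10 light-dark; percent mortality recorded per well and averaged over eight wells.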

[4] = Yellow Fever Mosquito, rating class
[5] = Beet Armyworm, rating class, read-out: BAW
[6] = Cabbage Looper, rating class, read-out: CL
[7] = Table ABC: Biological Results, species YFM
[8] = Table ABC: Biological Results, species BAW, read-out: BAW
[9] = Table ABC: Biological Results, species CL, read-out: CL
[10] = Beet Armyworm, Table ABC / ABC-DP rating, read-out: BAW rating
[11] = Cabbage Looper, Table ABC / ABC-DP rating, read-out: CL rating

Row | Structure (SMILES) | YFM [1, 7] | pest or weed control at 50 µg/cm2 [2, 8] | pest or weed control at 50 µg/cm2 [3, 9] | YFM rating ([1]; Yellow Fever Mosquito) | pest or weed control at 50 µg/cm2 [2, 10] | pest or weed control at 50 µg/cm2 [3, 11] | other results
1 | O=C(Nc1ccc(NC(=O)C(F)(F)F)c(C(F)(F)F)c1)c1cc(NC(=O)[C@H]2[C@H](c3ccc(F)c(Cl)c3)C2(Cl)Cl)ccc1Cl (relative stereo) [F1393, trans-2-Chloro-5-(2,2-dichloro-3-(3-chloro-4-fluorophenyl)cyclopropane-1-carboxamido)-N-(4-(2,2,2-trifluoroacetamido)-3-(trifluoromethyl)phenyl)benzamide] |  |  |  |  |  |  | YFM [1, 4]: A (80–100); pest or weed control at 50 µg/cm2 [2, 5]: 50 to 100%; pest or weed control at 50 µg/cm2 [3, 6]: 50 to 100%
2 | CC(C)(C)OC(=O)Nc1c(F)ccc(NC(=O)c2cc(NC(=O)[C@@H]3[C@@H](c4ccc(F)c(C(F)(F)F)c4)C3(Cl)Cl)ccc2Cl)c1F [F1074, tert-Butyl-(3-(2-chloro-5-((1S,3S)-2,2-dichloro-3-(4-fluoro-3-(trifluoromethyl)phenyl)cyclopropane-1-carboxamido)benzamido)-2,6-difluorophenyl)carbamate] | A (80–100) | 50 to 100% | 50 to 100% |  |  |  | 
3 | Cc1cc(NC(=O)[C@H]2[C@H](c3ccc(F)c(Cl)c3)C2(Cl)Cl)cc(C(=O)Nc2ccc(F)cc2F)c1F (relative stereo) [F1137, trans-5-(2,2-Dichloro-3-(3-chloro-4-fluorophenyl)cyclopropane-1-carboxamido)-N-(2,4-difluorophenyl)-2-fluoro-3-methylbenzamide] | A (80–100) | 50 to 100% | 50 to 100% |  |  |  | 
4 | Cc1cc(NC(=O)[C@H]2[C@H](c3ccc(F)c(Cl)c3)C2(Cl)Cl)cc(C(=O)Nc2ccccc2)c1Cl (relative stereo) [F1183, trans-2-Chloro-5-(2,2-dichloro-3-(3-chloro-4-fluorophenyl)cyclopropane-1-carboxamido)-3-methyl-N-phenylbenzamide] | A (80–100) | 50 to 100% | 50 to 100% |  |  |  | 
5 | COCC(C)NNC(=O)c1cc(NC(=O)[C@H]2[C@H](c3cc(Cl)cc(Cl)c3)C2(Cl)Cl)ccc1Cl (relative stereo) [F2551, trans-2,2-Dichloro-N-(4-chloro-3-(2-(1-methoxypropan-2-yl)hydrazine-1-carbonyl)phenyl)-3-(3,5-dichlorophenyl)cyclopropane-1-carboxamide] |  |  |  | A (80–100) | 50 to 100% | 50 to 100% | 
6 | CC(C)(C)OC(=O)Nc1c(F)ccc(NC(=O)c2cc(NC(=O)[C@H]3[C@H](c4ccc(F)c(C(F)(F)F)c4)C3(Cl)Cl)ccc2Cl)c1F (relative stereo) [F1078, trans-tert-Butyl-(3-(2-chloro-5-(2,2-dichloro-3-(4-fluoro-3-(trifluoromethyl)phenyl)cyclopropane-1-carboxamido)benzamido)-2,6-difluorophenyl)carbamate] | A (80–100) | 50 to 100% | 50 to 100% |  |  |  | 
7 | O=C(Nc1ccc(F)c(NC(=O)C(F)F)c1F)c1cc(NC(=O)[C@H]2[C@H](c3ccc(Br)cc3)C2(Cl)Cl)ccc1Cl (relative stereo) [F1597, trans-5-(3-(4-Bromophenyl)-2,2-dichlorocyclopropane-1-carboxamido)-2-chloro-N-(3-(2,2-difluoroacetamido)-2,4-difluorophenyl)benzamide] |  |  |  |  |  |  | YFM [1, 4]: A (80–100); pest or weed control at 50 µg/cm2 [2, 5]: 50 to 100%; pest or weed control at 50 µg/cm2 [3, 6]: 50 to 100%
8 | O=C(Nc1c(F)ccc(NC(=O)C(F)F)c1F)c1cc(NC(=O)[C@H]2[C@H](c3ccc(F)c(C(F)(F)F)c3)C2(Cl)Cl)ccc1Cl [F1394, 2-Chloro-5-((1R,3R)-2,2-dichloro-3-(4-fluoro-3-(trifluoromethyl)phenyl)cyclopropane-1-carboxamido)-N-(3-(2,2-difluoroacetamido)-2,6-difluorophenyl)benzamide] |  |  |  |  |  |  | YFM [1, 4]: A (80–100); pest or weed control at 50 µg/cm2 [2, 5]: 50 to 100%; pest or weed control at 50 µg/cm2 [3, 6]: 50 to 100%
9 | Nc1c(F)ccc(NC(=O)c2cc(NC(=O)[C@H]3[C@H](c4cc(F)c(Cl)c(Cl)c4)C3(Cl)Cl)ccc2Cl)c1F (relative stereo) [F1046, trans-N-(3-Amino-2,4-difluorophenyl)-2-chloro-5-(2,2-dichloro-3-(3,4-dichloro-5-fluorophenyl)cyclopropane-1-carboxamido)benzamide] | A (80–100) | 50 to 100% | 50 to 100% |  |  |  | 
10 | O=C(CCC(F)(OC(F)(F)F)C(F)(F)F)Nc1c(F)ccc(NC(=O)c2cc(NC(=O)[C@H]3[C@H](c4ccc(F)c(C(F)(F)F)c4)C3(Cl)Cl)ccc2Cl)c1F (stereo partly drawn) [F1858, 2-Chloro-5-((1R,3R)-2,2-dichloro-3-(4-fluoro-3-(trifluoromethyl)phenyl)cyclopropane-1-carboxamido)-N-(2,4-difluoro-3-(4,5,5,5-tetrafluoro-4-(trifluoromethoxy)pentanamido)phenyl)benzamide] |  |  |  | A (80–100) | 50 to 100% | 50 to 100% | 
11 | CC(=O)N(C)c1c(F)ccc(NC(=O)c2cc(NC(=O)[C@H]3[C@H](c4ccc(F)c(C(F)(F)F)c4)C3(Cl)Cl)ccc2Cl)c1F [F1506, 2-Chloro-5-((1R,3R)-2,2-dichloro-3-(4-fluoro-3-(trifluoromethyl)phenyl)cyclopropane-1-carboxamido)-N-(2,4-difluoro-3-(N-methylacetamido)phenyl)benzamide] |  |  |  |  |  |  | YFM [1, 4]: A (80–100); pest or weed control at 50 µg/cm2 [2, 5]: 50 to 100%; pest or weed control at 50 µg/cm2 [3, 6]: 50 to 100%
12 | C=C(F)c1cc(F)ccc1NC(=O)c1cc(NC(=O)[C@H]2[C@H](c3cc(Cl)cc(Cl)c3)C2(Cl)Cl)ccc1Cl (relative stereo) [F1319, trans-2-Chloro-5-(2,2-dichloro-3-(3,5-dichlorophenyl)cyclopropane-1-carboxamido)-N-(4-fluoro-2-(1-fluorovinyl)phenyl)benzamide] | A (80–100) | 50 to 100% | 50 to 100% |  |  |  | 
13 | O=C(NCC(F)(F)F)c1cc(NC(=O)[C@H]2[C@H](c3cc(C(F)(F)F)cc(Cl)c3F)C2(Cl)Cl)ccc1Cl (relative stereo) [F2012, trans-2-Chloro-5-(2,2-dichloro-3-(3-chloro-2-fluoro-5-(trifluoromethyl)phenyl)cyclopropane-1-carboxamido)-N-(2,2,2-trifluoroethyl)benzamide] |  |  |  | A (80–100) | 50 to 100% | 50 to 100% | 
14 | O=C(NNc1ccc(F)cc1)c1cc(NC(=O)[C@H]2[C@H](c3cc(Cl)cc(Cl)c3)C2(Cl)Cl)ccc1Cl (relative stereo) [F2553, trans-2,2-Dichloro-N-(4-chloro-3-(2-(4-fluorophenyl)hydrazine-1-carbonyl)phenyl)-3-(3,5-dichlorophenyl)cyclopropane-1-carboxamide] |  |  |  | A (80–100) | 50 to 100% | 50 to 100% | 
15 | Cc1cc([C@@H]2[C@H](C(=O)Nc3ccc(Cl)c(C(=O)NCC(F)(F)F)c3)C2(Cl)Cl)cc(C(F)(F)F)c1F (relative stereo) [F2015, cis-2-Chloro-5-(2,2-dichloro-3-(4-fluoro-3-methyl-5-(trifluoromethyl)phenyl)-cyclopropane-1-carboxamido)-N-(2,2,2-trifluoroethyl)benzamide] |  |  |  | A (80–100) | 50 to 100% | 50 to 100% | 
16 | O=C(NCC(F)(F)F)c1cc(NC(=O)C2C(c3cc(Br)cc(S(F)(F)(F)(F)F)c3)C2(Cl)Cl)ccc1Cl (stereo not drawn) [F2009, cis-5-(3-(3-Bromo-5-(pentafluoro-λ^6-sulfanyl)phenyl)-2,2-dichiorocyclopropane-1-carboxamido)-2-chloro-N-(2,2,2-trifluoroethyl)benzamide] |  |  |  | A (80–100) | 50 to 100% | 50 to 100% | 
17 | Cc1cc(NC(=O)OC(C)(C)C)ccc1NC(=O)c1cc(NC(=O)[C@H]2[C@H](c3cc(Cl)cc(Cl)c3)C2(Cl)Cl)ccc1Cl (relative stereo) [DP10, trans-tert-butyl-(4-(2-chloro-5-(2,2-dichloro-3-(3,5-dichlorophenyl)cyclopropane-1-carboxamido)benzamido)-3-methylphenyl)carbamate] |  |  |  | A (80–100) | 50 to 100% | 50 to 100% | YFM % Control (or Mortality) rating ([1]; about 1 day-old larvae, 4000 ppm master solution diluted with 90:10 water/acetone, 15 μL per well plus 220 μL larval mixture, 3 days, mortality): A (80–100); mortality at 50 µg/cm2 ([2]; 168 h, second instar larvae, 50 μg/cm^2 of test molecule on artificial diet, 25° C., five to seven days, average of eight wells, read-out: BAW % Control (or Mortality) rating): 50 to 100%; mortality at 50 µg/cm2 ([3]; 168 h, second instar larvae, 50 μg/cm^2 of test molecule on artificial diet, 25° C., five to seven days, average of eight wells, read-out: CL % Control (or Mortality) rating): 50 to 100%
18 | CC(=O)NCCCNC(=O)c1cc(NC(=O)[C@H]2[C@H](c3cc(Cl)cc(Cl)c3)C2(Cl)Cl)ccc1Cl (relative stereo) [F2067, trans-N-(3-Acetamidopropyl)-2-chloro-5-(2,2-dichloro-3-(3,5-dichlorophenyl)cyclopropane-1-carboxamido)benzamide] |  |  |  | A (80–100) | 50 to 100% | 50 to 100% | 
